# Laboratory results: ChEMBL document CHEMBL1949508, “The selective cytotoxic activity in breast cancer cells by an anthranilic alcohol-derived acyclic 5-fluorouracil O,N-acetal is mediated by endoplasmic reticulum stress-induced apoptosis” (Eur J Med Chem, 2012)
# pIC50: −log10 of the molar value. The source made the active and inactive calls. The calls are words filed in the database; no cut-off is given here.
# Columns and labels:
# MCF-10A [1] = test: Upregulation of BNIP3 gene in human MCF10A cells at 37.67 uM after 48 hrs by microarray hybridization relative to control; assay type: functional, cell-based
# MCF7 [2] = test: Downregulation of AVEN gene in human MCF7 cells at 1.09 uM after 48 hrs by microarray hybridization relative to control; assay type: functional
# MCF-10A [3] = test: Induction of apoptosis in human MCF10A cells assessed as late apoptotic cells at 37.67 uM after 48 hrs by annexinV-FITC/PI-based flow cytometry (reference value: 0.21 +/- 0.1%); assay type: cell-based
# MCF-10A [4] = test: Downregulation of CCL2 gene in human MCF10A cells at 37.67 uM after 48 hrs by microarray hybridization relative to control; assay type: functional, cell-based
# MCF7 [5] = test: Upregulation of GADD45A gene in human MCF7 cells at 1.09 uM after 48 hrs by microarray hybridization relative to control; assay type: functional
# MCF-10A [6] = test: Downregulation of BAG2 gene in human MCF10A cells at 37.67 uM after 48 hrs by microarray hybridization relative to control; assay type: functional, cell-based
# MCF7 [7] = test: Downregulation of TP5313 gene in human MCF7 cells at 1.09 uM after 48 hrs by microarray hybridization relative to control; assay type: functional
# [8] = Therapeutic index, ratio of IC50 for human MCF10A cells to IC50 for human MCF7 cells; assay type: cell-based; conditions: MCF10A cells and MCF7 cells, read-out: Ratio IC50
# MCF-10A [9] = test: Downregulation of CD14 gene in human MCF10A cells at 37.67 uM after 48 hrs by microarray hybridization relative to control; assay type: functional, cell-based
# MCF-10A [10] = test: Downregulation of TP5313 gene in human MCF10A cells at 37.67 uM after 48 hrs by microarray hybridization relative to control; assay type: functional, cell-based
# MCF-10A [11] = test: Upregulation of BBC3 gene in human MCF10A cells at 37.67 uM after 48 hrs by quantitative RT-PCR analysis; assay type: functional, cell-based
# MCF-10A [12] = test: Upregulation of CARD14 gene in human MCF10A cells at 37.67 uM after 48 hrs by microarray hybridization relative to control; assay type: functional, cell-based
# MCF-10A [13] = test: Downregulation of UNC5C gene in human MCF10A cells at 37.67 uM after 48 hrs by microarray hybridization relative to control; assay type: functional, cell-based
# MCF7 [14] = test: Downregulation of E2F1 gene in human MCF7 cells at 1.09 uM after 48 hrs by microarray hybridization relative to control; assay type: functional
# MCF-10A [15] = test: Cytotoxicity against human MCF10A cells after 3 days by SRB assay; assay type: cell-based; conditions: 72 h
# MCF7 [16] = test: Upregulation of NOXA gene in human MCF7 cells at 1.09 uM after 48 hrs by quantitative RT-PCR analysis; assay type: functional, cell-based
# MCF7 [17] = test: Downregulation of CCL2 gene in human MCF7 cells at 1.09 uM after 48 hrs by microarray hybridization relative to control; assay type: functional
# MCF7 [18] = test: Downregulation of FAIM gene in human MCF7 cells at 1.09 uM after 48 hrs by microarray hybridization relative to control; assay type: functional
# [19] = Antiproliferative activity against human MCF10A cells assessed as viable cells at 37.67 uM after […] by SRB assay (reference value: 98.46 +/- 3.2%); assay type: cell-based, MCF-10A; conditions: read-out: Activity
# MCF7 [20] = test: Modulation of p53 gene expression in human MCF7 cells at 1.09 uM after 48 hrs by quantitative RT-PCR analysis; assay type: functional, cell-based
# MCF-10A [21] = test: Upregulation of GADD45A gene in human MCF10A cells at 37.67 uM after 48 hrs by microarray hybridization relative to control; assay type: functional, cell-based
# MCF-10A [22] = test: Downregulation of […] gene in human MCF10A cells at 37.67 uM after 48 hrs by microarray hybridization relative to control; assay type: functional, cell-based
# MCF-10A [23] = test: Upregulation of MTL5 gene in human MCF10A cells at 37.67 uM after 48 hrs by microarray hybridization relative to control; assay type: functional, cell-based
# MCF7 [24] = test: Upregulation of BBC3 gene in human MCF7 cells at 1.09 uM after 48 hrs by microarray hybridization relative to control; assay type: functional
# MCF7 [25] = test: Upregulation of BBC3 protein expression in human MCF7 cells at […] after 48 hrs by Western blot analysis relative to control; assay type: functional
# MCF-10A [26] = test: Upregulation of BNIP3L gene in human MCF10A cells at 37.67 uM after 48 hrs by microarray hybridization relative to control; assay type: functional, cell-based
# MCF7 [27] = test: Upregulation of BNIP3L gene in human MCF7 cells at 1.09 uM after 48 hrs by microarray hybridization relative to control; assay type: functional
# MCF-10A [28] = test: Upregulation of NOXA gene in human MCF10A cells at 37.67 uM after 48 hrs by microarray hybridization relative to control; assay type: functional, cell-based
# MCF7 [29] = test: Induction of apoptosis in human MCF7 cells assessed as apoptotic cells at 1.09 uM after 48 hrs by annexinV-FITC/PI-based flow cytometry relative to control; assay type: functional
# MCF7 [30] = test: Downregulation of Bcl2 gene expression in human MCF7 cells at 1.09 uM after 48 hrs by quantitative RT-PCR analysis; assay type: functional, cell-based
# MCF7 [31] = test: Upregulation of GADD45B gene in human MCF7 cells at 1.09 uM after 48 hrs by microarray hybridization relative to control; assay type: functional
structure (smiles),measurement,setting,value
COC(CN(c1ccccc1CO)S(=O)(=O)c1ccccc1N)n1cc(F)c(=O)[nH]c1=O (racemic),Activity,MCF-10A [1],inactive
same,fold change (FC),MCF7 [2],-2.21
same,Activity,MCF-10A [3],17.29%
same,Activity,MCF-10A [4],inactive
same,fold change (FC),MCF7 [5],2.54
same,Activity,MCF-10A [6],inactive
same,fold change (FC),MCF7 [7],-2.68
same,selectivity ratio,[8],34.5
same,Activity,MCF-10A [9],inactive
same,Activity,MCF-10A [10],inactive
same,Activity,MCF-10A [11],inactive
same,Activity,MCF-10A [12],inactive
same,Activity,MCF-10A [13],inactive
same,fold change (FC),MCF7 [14],-2.61
same,pIC50,MCF-10A [15],4.42
same,Activity,MCF7 [16],Active
same,fold change (FC),MCF7 [17],-3.77
same,fold change (FC),MCF7 [18],-3.1
same,viability at 37.67 µM,[19],30.9%
same,Activity,MCF7 [20],inactive
same,Activity,MCF-10A [21],inactive
same,Activity,MCF-10A [22],inactive
same,Activity,MCF-10A [23],inactive
same,fold change (FC),MCF7 [24],3.78
same,fold change (FC),MCF7 [25],2.74
same,Activity,MCF-10A [26],inactive
same,fold change (FC),MCF7 [27],2.84
same,Activity,MCF-10A [28],inactive
same,Activity,MCF7 [29],90.73%
same,Activity,MCF7 [30],Active
same,fold change (FC),MCF7 [31],2.2
